Experiment: Rat pharmacokinetic experiment
Assay type: in vivo
Details: po, male SD rats, gavage (p.o.), 10 mg/kg, plasma
Description: TEST EXAMPLE 3 PHARMACOKINETIC EXPERIMENT OF COMPOUNDS
Pharmacokinetic test of compounds T-32/T-105/T-253/T-272/T-273/T-277 of the present invention.
Experimental Protocol of Rat Pharmacokinetics
• (1) Required animals: healthy adult SD rats, male, 3 rats, 6-8 weeks old; weighing 200-300 g. • (2) Required equipments: analytical balance, animal weight scale, magnetic stirrer, refrigerated centrifuge, single-channel manual pipettor, etc. • (3) Required reagents: EDTA-Na2 anticoagulant, etc. 11.2 g of EDTA-Na2 was weighed and placed in a reagent flask, 100 mL of normal saline was added, and the flask was shook to completely dissolve it. After the preparation was completed, it was divided into 1.5 mL centrifuge tubes with 20 uL each for whole blood sample collection. • (3) About 10 mg of the sample to be tested was accurately weighed, 5% DMSO after conversion was added to dissolve, then 30% PEG400 and 65% (10% Hp-β-CD in PBS) were added for sonication, and vortex-mixed evenly to obtain a solution with a concentration of 1 mg/mL which is freshly prepared before use. • (4) 0.1 mL of sample was taken into a 1.5 mL centrifuge tube and stored at −80° C. for concentration analysis of drug administration solution. • (5) Animals were kept in rat cages, and fasted (not less than 10 h) from the day before the test(but water was allowed). The animals were separately weighed and marked at the tail on the day of the test. Blank blood was collected before administration. The blood was collected from tail vein. • (6) Route of administration: gavage (p.o.); dosage: 10 mg/kg; administration volume: 10 mL/kg. • (7) Operation process: Use the left hand with anti-bite gloves to catch the rat, make it stand upright, stretch the 16th gastric lavage needle from the throat of the mouth, insert the needle when feeling out no obvious resistance, and then inject the drug into the stomach. • (8) 0.2 ml of whole blood was collected from the tested animals and added into EDTA-Na2 anticoagulant tubes before administration and 0.5 h, 1 h, 2 h, 4 h, 6 h, 8 h, 12 h and 24 h after administration respectively. The tubes were reversed up and down for 3-4 times and mixed evenly, centrifuged at 4° C. at 10000 g for 5 min to separate plasma, and stored at −80° C. for testing. The blood was collected from tail vein. • (9) LC-MS/MS method was established to determine the concentration of original drug in plasma, the blood drug concentration-time curve was drawn, and the main pharmacokinetic parameters were calculated by non-compartment model. • (10) Pharmacokinetic parameters of T-32/T-105/T-253/T-272/T-273/T-277 were shown below in Table 2.

- AUC(0-t): 2180 ng·h/mL
- Cmax: 584 ng/mL
- MRT last: 2.92 h
- Tmax: 2 h
SMILES: CC(C)NC(=O)c1ccc2c(-c3ccc(C(F)(F)F)cc3)cccc2c1 [Control compound 1, reference compound]

— patent publication US20250154105A1, “POLYCYCLIC COMPOUND AND USE THEREOF” (TYK MEDICINES, INC., priority 2021, published 2025)
